One molecule from patent US10414759B2, “Phenylthiazoles and uses thereof” (Purdue Research Foundation, priority 2017, dated 2019) can be followed below.

What is called MBC is the smallest concentration meeting the test's criterion for killing. The term MIC denotes the least concentration at which growth counts as inhibited.

Converted amounts (≈) assume the structure as drawn.

One assay deals with NRS123 (MRSA USA400). Put plainly: MIC/MBC clinical isolate panel (Table 3). The format is cell-based, S. aureus. To be noted: Staphylococcus aureus; Table 3; NRS123 (MRSA USA400). The procedure:
(§1) Bacteria were cultured in cation-adjusted Mueller Hinton broth in a 96-well plate. Compounds, using triplicate samples, were added to the plate and serially diluted. […] Plates were visually inspected and the MIC was categorized as the concentration at which no visible growth of bacteria was observed. The average of triplicate MIC determinations is reported.
(§2) A bacterial solution equivalent to 0.5 McFarland standard was prepared and diluted in cation-adjusted Mueller-Hinton broth (CAMHB) to achieve a bacterial concentration of about 5×10^5 CFU/mL and seeded in 96-well plates. Enterococcus faecium was diluted in brain heart infusion broth. Enterococcus faecalis, Streptococcus pneumonia and Listeria monocytogenes were diluted in tryptone soya broth (TSB).

The test system of the next assay is NRS382 (MRSA USA100). Put plainly: MIC/MBC clinical isolate panel (Table 3). To be noted: Staphylococcus aureus, Table 3, NRS382 (MRSA USA100). The format is cell-based, S. aureus. The procedure: as §1, §2
A further assay deals with NRS383 (MRSA USA200). Put plainly: MIC/MBC clinical isolate panel (Table 3). To be noted: Staphylococcus aureus, Table 3, NRS383 (MRSA USA200). It counts as cell-based, S. aureus. As for the experimental part:
as §1, §2

In the next assay the test system is NRS384 (MRSA USA300). In words: MIC/MBC clinical isolate panel (Table 3). It counts as cell-based, S. aureus. To be noted: Staphylococcus aureus; Table 3; NRS384 (MRSA USA300). As for the experimental part: as §1, §2
The test system of the next assay is NRS72 (MSSA). In words: MIC/MBC clinical isolate panel (Table 3). It counts as cell-based, S. aureus. The following applies: Staphylococcus aureus, Table 3, NRS72 (MSSA). The procedure: as §1, §2
A further assay relates to VRSA10. In words: MIC/MBC clinical isolate panel (Table 3). It counts as cell-based, S. aureus. The following applies: Staphylococcus aureus, Table 3, VRSA10. The procedure: as §1, with “MRSA clinical isolates, and vancomycin-resistant Staphylococcus aureus (VRSA) strain were obtained through the Network of Antimicrobial Resistance in Staphylococcus aureus (NARSA) program. In addition, vancomycin-resistant Enterococcus faecium (VRE) strain was obtained from the ATCC. Bacteria” for “Bacteria”
(§3) The minimum inhibitory concentration (MIC) of tested compounds and control antibiotics were determined using the broth microdilution method in accordance with the recommendations contained in the Clinical and Laboratory Standards Institute guidelines, against methicillin-sensitive (ATCC 6538 and NRS107), methicillin-resistant (MRSA), and vancomycin-resistant (VRSA) Staphylococcus aureus, Staphylococcus epidermidis, Enterococcus faecalis, E. faecium, Listeria monocytogenes, and Streptococcus pneumoniae clinical isolates. A bacterial solution equivalent to 0.5 McFarland standard was prepared and diluted in cation-adjusted Mueller-Hinton broth (CAMHB) to achieve a bacterial concentration of about 5×10^5 CFU/mL and seeded in 96-well plates. Enterococcus faecium was diluted in brain heart infusion broth. Enterococcus faecalis, Streptococcus pneumonia and Listeria monocytogenes were diluted in tryptone soya broth (TSB). Compounds and control drugs were added in the first row of 96-well plates and serially diluted (to achieve a concentration gradient ranging from 128 to 1 μg/mL). Plates were then incubated aerobically at 37° C. for at least 18 hours. The minimum bactericidal concentration (MBC) of the active compounds was tested by plating 5 μL from wells with no growth onto Tryptic soy agar (TSA) plates.

The test system of the next assay is VRE ATCC 700221. Put plainly: MIC/MBC clinical isolate panel (Table 3). The format is cell-based, Enterococcus faecium. The following applies: Enterococcus, Table 3, VRE ATCC 700221. As for the experimental part: as §1, with “MRSA clinical isolates, and vancomycin-resistant Staphylococcus aureus (VRSA) strain were obtained through the Network of Antimicrobial Resistance in Staphylococcus aureus (NARSA) program. In addition, vancomycin-resistant Enterococcus faecium (VRE) strain was obtained from the ATCC. Bacteria” for “Bacteria”
as §3

The subject of the next assay is MRSA NRS119. In words: MIC/MBC S. aureus strains (Table 8). The format is cell-based. The following applies: Staphylococcus aureus. As for the experimental part: as §2
In another assay the test system is MRSA NRS123 (USA400). Put plainly: MIC/MBC S. aureus strains (Table 8). It counts as cell-based. To be noted: Staphylococcus aureus. As for the experimental part:
as §2

For another assay, the system named is MRSA NRS384 (USA300). In words: MIC/MBC S. aureus strains (Table 8). To be noted: Staphylococcus aureus. The format is cell-based. As for the experimental part:
as §2

Another assay relates to MRSA NRS386. In words: MIC/MBC S. aureus strains (Table 8). To be noted: Staphylococcus aureus. The format is cell-based. The procedure: as §2
The next assay deals with VRS10 (VRSA). Put plainly: MIC/MBC S. aureus strains (Table 8). The format is cell-based. The following applies: Staphylococcus aureus; Table 8; VRS10 (VRSA); read-out: MBC. As for the experimental part: as §3
For another assay, the system named is VRS12 (VRSA). Put plainly: MIC/MBC S. aureus strains (Table 8). The format is cell-based. To be noted: Staphylococcus aureus; Table 8; VRS12 (VRSA); read-out: MBC. The procedure:
as §3

For `CC(=O)NC[C@H]1CN(c2ccc(N3CCOCC3)c(F)c2)C(=O)O1` [Linezolid, linezolid], the MBC was 16 µg/mL (≈ 47.4 µM) in the assay on NRS123 (MRSA USA400); 8 µg/mL (≈ 23.7 µM) against NRS382 (MRSA USA100); 32 µg/mL (≈ 94.9 µM) against NRS383 (MRSA USA200); 4 µg/mL (≈ 11.9 µM) against NRS384 (MRSA USA300); 2 µg/mL (≈ 5.93 µM) in the assay with NRS72 (MSSA); 2 µg/mL (≈ 5.93 µM) with VRSA10 (read-out: MBC). For the same molecule, the MBC with VRE ATCC 700221 (read-out: MBC) was 32 µg/mL (≈ 94.9 µM); against MRSA NRS119, more than 64 µg/mL; against MRSA NRS386 it was 64 µg/mL (≈ 190 µM); in the assay on VRS10 (VRSA), 64 µg/mL (≈ 190 µM); in the assay on VRS12 (VRSA), 64 µg/mL (≈ 190 µM). The MIC with NRS382 (MRSA USA100) (read-out: MIC) came out at 1 µg/mL (≈ 2.96 µM); in the assay on NRS383 (MRSA USA200) (read-out: MIC) it was 1 µg/mL (≈ 2.96 µM); in the assay with NRS72 (MSSA) (read-out: MIC) it was 1 µg/mL (≈ 2.96 µM); with VRSA10 (read-out: MIC), 1 µg/mL (≈ 2.96 µM); with VRE ATCC 700221 (read-out: MIC), 1 µg/mL (≈ 2.96 µM); in the assay on MRSA NRS119 it was 32 µg/mL (≈ 94.9 µM). Further, the MIC with MRSA NRS123 (USA400) and with MRSA NRS384 (USA300) was 1 µg/mL (≈ 2.96 µM) throughout.
